≈ marks a conversion by molar mass, not a printed value. Calls of active or inactive are those of the source. The rule behind the calls is not given here.
Key:
[1] = test system: Mycolicibacterium smegmatis; assay: Antibacterial activity against Mycobacterium smegmatis ATCC 700084 incubated for 24 hrs by broth microdilution method; type: functional; details: ATCC 700084, 24 h
Wickerhamomyces anomalus [2] = assay: Antifungal activity against Pichia anomala DSM 6766 incubated for 48 hrs by broth microdilution method; type: functional
Candida albicans [3] = assay: Antifungal activity against Candida albicans DSM 1665 incubated for 48 hrs by broth microdilution method; type: functional
[4] = test system: Schizosaccharomyces pombe; assay: Antifungal activity against Schizosaccharomyces pombe DSM 70572 incubated for 48 hrs by broth microdilution method; type: functional
Rhodotorula glutinis [5] = assay: Antifungal activity against Rhodotorula glutinis DSM 10134 incubated for 48 hrs by broth microdilution method; type: functional
Mucor hiemalis [6] = assay: Antifungal activity against Mucor hiemalis DSM 2656 incubated for 48 hrs by broth microdilution method; type: functional
[7] = test system: Mycolicibacterium smegmatis; assay: Antibacterial activity against Mycobacterium smegmatis ATCC 700084 at 66 ug/ml incubated for 24 hrs by broth microdilution method; type: functional, organism-based
SK-OV-3 = assay: Cytotoxicity against human SKOV3 cells assessed as reduction in cell growth incubated for 5 days by MTT assay; type: functional, cell-based
Pseudomonas aeruginosa [8] = assay: Antibacterial activity against Pseudomonas aeruginosa DSM PA14 at 66 ug/ml incubated for 24 hrs by broth microdilution method; type: functional, organism-based
KB 3-1 = assay: Cytotoxicity against human KB3-1 cells assessed as reduction in cell growth incubated for 5 days by MTT assay; type: functional, cell-based
PC-3 = assay: Cytotoxicity against human PC3 cells assessed as reduction in cell growth incubated for 5 days by MTT assay; type: functional, cell-based
Wickerhamomyces anomalus [9] = assay: Antifungal activity against Pichia anomala DSM 6766 at 66 ug/ml incubated for 48 hrs by broth microdilution method; type: functional, organism-based
Micrococcus luteus [10] = assay: Antibacterial activity against Micrococcus luteus DSM 1790 incubated for 24 hrs by broth microdilution method; type: functional; details: DSM 1790, 24 h
Caenorhabditis elegans = assay: Nematicidal activity against Caenorhabditis elegans incubated for 18 hrs; type: functional; details: for LC50: read-out: LD50 (the source's name)
Escherichia coli [11] = assay: Antibacterial activity against Escherichia coli DSM 1116 at 66 ug/ml incubated for 24 hrs by broth microdilution method; type: functional, organism-based
A549 = assay: Cytotoxicity against human A549 cells assessed as reduction in cell growth incubated for 5 days by MTT assay; type: functional, cell-based
A-431 = assay: Cytotoxicity against human A431 cells assessed as reduction in cell growth incubated for 5 days by MTT assay; type: functional, cell-based
L929 = assay: Cytotoxicity against mouse L929 cells assessed as reduction in cell growth incubated for 5 days by MTT assay; type: functional, cell-based
[12] = test system: Chromobacterium violaceum; assay: Antibacterial activity against Chromobacterium violaceum DSM 30191 at 66 ug/ml incubated for 24 hrs by broth microdilution method; type: functional, organism-based
Staphylococcus aureus = assay: Antibacterial activity against Staphylococcus aureus DSM 346 incubated for 24 hrs by broth microdilution method; type: functional; details: DSM 346, 24 h
Bacillus subtilis [13] = assay: Antibacterial activity against Bacillus subtilis DSM 10 incubated for 24 hrs by broth microdilution method; type: functional; details: DSM 10, 24 h
MCF7 = assay: Cytotoxicity against human MCF7 cells assessed as reduction in cell growth incubated for 5 days by MTT assay; type: functional, cell-based
Candida albicans [14] = assay: Antifungal activity against Candida albicans DSM 1665 at 66 ug/ml incubated for 48 hrs by broth microdilution method; type: functional, organism-based
Escherichia coli [15] = assay: Antibacterial activity against Escherichia coli DSM 1116 incubated for 24 hrs by broth microdilution method; type: functional; details: DSM 1116, 24 h
[16] = test system: Chromobacterium violaceum; assay: Antibacterial activity against Chromobacterium violaceum DSM 30191 incubated for 24 hrs by broth microdilution method; type: functional; details: DSM 30191, 24 h
Rhodotorula glutinis [17] = assay: Antifungal activity against Rhodotorula glutinis DSM 10134 at 66 ug/ml incubated for 48 hrs by broth microdilution method; type: functional, organism-based
[18] = test system: Schizosaccharomyces pombe; assay: Antifungal activity against Schizosaccharomyces pombe DSM 70572 at 66 ug/ml incubated for 48 hrs by broth microdilution method; type: functional, organism-based
Mucor hiemalis [19] = assay: Antifungal activity against Mucor hiemalis DSM 2656 at 66 ug/ml incubated for 48 hrs by broth microdilution method; type: functional, organism-based
Micrococcus luteus [20] = assay: Antibacterial activity against Micrococcus luteus DSM 1790 at 66 ug/ml incubated for 24 hrs by broth microdilution method; type: functional, organism-based
Bacillus subtilis [21] = assay: Antibacterial activity against Bacillus subtilis DSM 10 at 66 ug/ml incubated for 24 hrs by broth microdilution method; type: functional, organism-based
Pseudomonas aeruginosa [22] = assay: Antibacterial activity against Pseudomonas aeruginosa DSM PA14 incubated for 24 hrs by broth microdilution method; type: functional, organism-based
[23] = Homo sapiens, SK-OV-3, 120 h, read-out: IC50
[24] = Homo sapiens, KB 3-1, 120 h, read-out: IC50
[25] = Homo sapiens, PC-3, 120 h, read-out: IC50
[26] = Homo sapiens, A549, 120 h, read-out: IC50
[27] = Homo sapiens, A-431, 120 h, read-out: IC50
[28] = Mus musculus, L929, 120 h, read-out: IC50
[29] = Homo sapiens, MCF7, 120 h, read-out: IC50

## NC[C@H]1O[C@H](O[C@H]2[C@H](O)[C@@H](O[C@H]3O[C@H](CO)[C@@H](O)[C@H](N)[C@H]3O)[C@H](N)C[C@@H]2N)[C@H](O)[C@@H](O)[C@@H]1O [KANAMYCIN]
[1]
  MIC: 4.1 µg/mL (≈ 8.46 µM)

## NYSTATIN
Wickerhamomyces anomalus [2]
  MIC: 8.3 µg/mL
Candida albicans [3]
  MIC: 8.3 µg/mL
[4]
  MIC: 8.3 µg/mL
Rhodotorula glutinis [5]
  MIC: 1 µg/mL
Mucor hiemalis [6]
  MIC: 4.2 µg/mL

## O=C(O)/C=C/C=C1\C(=O)C=CC12Oc1cccc3cccc(c13)O2
[7]
  Activity: inactive
SK-OV-3; [23]
  IC50: 600 nM
Pseudomonas aeruginosa [8]
  Activity: inactive
KB 3-1; [24]
  IC50: 800 nM
PC-3; [25]
  IC50: 900 nM
Wickerhamomyces anomalus [9]
  Activity: inactive
Micrococcus luteus [10]
  MIC: 8.3 µg/mL (≈ 25.9 µM)
Caenorhabditis elegans
  LC50: 50 µg/mL (≈ 156 µM)
Escherichia coli [11]
  Activity: inactive
A549; [26]
  IC50: 2200 nM
[4]; DSM 70572, 48 h
  MIC: 33.3 µg/mL (≈ 104 µM)
A-431; [27]
  IC50: 200 nM
L929; [28]
  IC50: 600 nM
[12]
  Activity: inactive
Staphylococcus aureus
  MIC: 4.2 µg/mL (≈ 13.1 µM)
Bacillus subtilis [13]
  MIC: 4.2 µg/mL (≈ 13.1 µM)
MCF7; [29]
  IC50: 400 nM
Rhodotorula glutinis [5]; DSM 10134, 48 h
  MIC: 33.3 µg/mL (≈ 104 µM)
Mucor hiemalis [6]; DSM 2656, 48 h
  MIC: 16.7 µg/mL (≈ 52.1 µM)
Candida albicans [14]
  Activity: inactive

## C/C(=C\c1csc(C)n1)[C@@H]1C[C@@H]2O[C@]2(C)CCC[C@H](C)[C@H](O)[C@@H](C)C(=O)C(C)(C)[C@@H](O)CC(=O)O1 [PATUPILONE]
SK-OV-3; [23]
  IC50: 0.28 nM
KB 3-1; [24]
  IC50: 0.089 nM
PC-3; [25]
  IC50: 1.6 nM
A549; [26]
  IC50: 0.069 nM
A-431; [27]
  IC50: 0.079 nM
L929; [28]
  IC50: 1.4 nM
MCF7; [29]
  IC50: 0.24 nM

## CN(C)[C@@H]1C(=O)C(C(N)=O)=C(O)[C@@]2(O)C(=O)C3=C(O)c4c(O)cccc4[C@@](C)(O)[C@H]3[C@H](O)[C@@H]12.Cl
Micrococcus luteus [10]
  MIC: 4.2 µg/mL
Escherichia coli [15]
  MIC: 33.3 µg/mL
Staphylococcus aureus
  MIC: 2.1 µg/mL
Bacillus subtilis [13]
  MIC: 2.4 µg/mL
[16]
  MIC: 4.1 µg/mL

## O=C(O)/C=C/C=C1\[C@@H](O)C=CC12Oc1cccc3cccc(c13)O2
[7]
  Activity: inactive
Rhodotorula glutinis [17]
  Activity: inactive
SK-OV-3; sk-ov-3
  IC50: Not Active
Pseudomonas aeruginosa [8]
  Activity: inactive
KB 3-1; kb 3-1
  IC50: Not Active
PC-3; pc-3
  IC50: Not Active
Wickerhamomyces anomalus [9]
  Activity: inactive
Caenorhabditis elegans
  LC50: 50 µg/mL (≈ 155 µM)
Escherichia coli [11]
  Activity: inactive
A549; a549
  IC50: Not Active
A-431; a-431
  IC50: Not Active
[18]
  Activity: inactive
Mucor hiemalis [19]
  Activity: inactive
L929; l929
  IC50: Not Active
Micrococcus luteus [20]
  Activity: inactive
[12]
  Activity: inactive
Staphylococcus aureus
  MIC: 66.6 µg/mL (≈ 207 µM)
MCF7; mcf7
  IC50: Not Active
Bacillus subtilis [21]
  Activity: inactive
Candida albicans [14]
  Activity: inactive

## IVERMECTIN
Caenorhabditis elegans
  LD50: 1 µg/mL

## O=C(O)/C=C/C=C1\[C@@H](O)C[C@H](O)C12Oc1cccc3cccc(c13)O2
[7]
  Activity: inactive
Rhodotorula glutinis [17]
  Activity: inactive
SK-OV-3; sk-ov-3
  IC50: Not Active
Pseudomonas aeruginosa [8]
  Activity: inactive
KB 3-1; kb 3-1
  IC50: Not Active
PC-3; pc-3
  IC50: Not Active
Wickerhamomyces anomalus [9]
  Activity: inactive
Caenorhabditis elegans
  LC50: 50 µg/mL (≈ 147 µM)
Escherichia coli [11]
  Activity: inactive
A549; a549
  IC50: Not Active
A-431; a-431
  IC50: Not Active
[18]
  Activity: inactive
Mucor hiemalis [19]
  Activity: inactive
L929; l929
  IC50: Not Active
Micrococcus luteus [20]
  Activity: inactive
[12]
  Activity: inactive
Staphylococcus aureus
  MIC: 66.6 µg/mL (≈ 196 µM)
MCF7; mcf7
  IC50: Not Active
Bacillus subtilis [21]
  Activity: inactive
Candida albicans [14]
  Activity: inactive

## O=C(O)/C=C/C[C@H]1[C@@H](O)C=CC12Oc1cccc3cccc(c13)O2
[7]
  Activity: inactive
Rhodotorula glutinis [17]
  Activity: inactive
SK-OV-3; sk-ov-3
  IC50: Not Active
Pseudomonas aeruginosa [8]
  Activity: inactive
KB 3-1; [24]
  IC50: 40100 nM
PC-3; pc-3
  IC50: Not Active
Wickerhamomyces anomalus [9]
  Activity: inactive
Caenorhabditis elegans
  LC50: 25 µg/mL (≈ 77.1 µM)
Escherichia coli [11]
  Activity: inactive
A549; a549
  IC50: Not Active
A-431; a-431
  IC50: Not Active
[18]
  Activity: inactive
Mucor hiemalis [19]
  Activity: inactive
L929; l929
  IC50: Not Active
Micrococcus luteus [20]
  Activity: inactive
[12]
  Activity: inactive
Staphylococcus aureus
  MIC: 66.6 µg/mL (≈ 205 µM)
MCF7; mcf7
  IC50: Not Active
Bacillus subtilis [21]
  Activity: inactive
Candida albicans [14]
  Activity: inactive

## GENTAMICIN
Pseudomonas aeruginosa [22]
  MIC: 1 µg/mL

— ChEMBL document CHEMBL4414615, “Sparticolins A-G, Biologically Active Oxidized Spirodioxynaphthalene Derivatives from the Ascomycete Sparticola junci” (J Nat Prod, 2019)
